# Source: US20240294478A1, “ANTI-CANCER COMPOUNDS AND METHODS OF USE” (YALE UNIVERSITY, priority 2021, published 2024)
# Key:
# LN229 MGMT+ shMSH3 cells = test: Short-term viability assay, LN229 MGMT+ shMSH3; format: cell-based; conditions: Homo sapiens, LN-229, Table III, read-out: IC50 against LN229 cell lines, MGMT MMR−
# Procedure: (§1) The activity of KL-50 in MGMT-LN229 cells engineered to lack expression of other key MMR proteins including MSH6, MLH1, PMS2, and MSH3 was also confirmed. Western blotting was performed in LN229 MGMT+/−cells with stable expression of shRNA targeting MSH6, MLH1, PMS2, or MSH3 to confirm depletion of the shRNA targets. In shMSH6 cells, there was reduced expression of MSH2, and in shMLH1 cells, there was loss of PMS2, due to destabilization in the setting of loss of their heterodimeric partners. GAPDH serves as loading control. […] Short-term viability assay curves for KL-50 in LN229 MGMT+/−, MMR+/shMSH6 cells. […] Short-term viability assay curves for KL-50 in LN229 MGMT+/−, MMR+/shMLH1 cells. […] Short-term viability assay curves for KL-50 in LN229 MGMT+/−, MMR+/shPMS2 cells. […] Short-term viability assay curves for KL-50 in LN229 MGMT+/−, MMR+/shMSH3 cells.
# MMR Protein shRNA Knockdown. pGIPZ lentiviral shRNA vectors targeting MSH2, MSH6, MLH1, PMS2, and MSH3 were purchased from Horizon Discovery (Table IV). […]
# Short-term Cell Viability Assay. […] Cells were imaged on a Cytation 3 imaging reader (BioTek) and quantified using CellProfiler software. For in vitro short-term growth delay experiments, IC50 values were determined from the nonlinear regression equation, [inhibitor] vs normalized response with variable slope.
# LN229 MGMT− shMSH3 cells = test: Short-term viability assay, LN229 MGMT- shMSH3; format: cell-based, human; conditions: for IC50: Homo sapiens, LN-229, Table III, read-out: IC50 against LN229 cell lines, MGMT− MMR−; for MGMT− RI: Table III
# Procedure: as §1
# MMR Protein shRNA Knockdown. pGIPZ lentiviral shRNA vectors targeting MSH2, MSH6, MLH1, PMS2, and MSH3 were purchased from Horizon Discovery (Table IV). Lentiviral particles were produced in HEK293T cells via co-transfection with lentiviral shRNA plasmid, pCMV-VSV-G envelope plasmid (Addgene, #8454) and psPAX2 packaging plasmid (Addgene, #12260), using Lipofectamine 3000 Reagent (Invitrogen, L3000001) per manufacturer's protocol. Viral particles were harvested 48 h post-transfection and used to transduce LN229 MGMT+/−cells in the presence of 8 μg/mL polybrene. Selection of pooled cells with lentiviral expression was established with 1 μg/mL puromycin 48 h post-transduction for 3 to 4 days. Single cell cloning was performed by limiting dilution and protein knockdown was confirmed by western blotting.
# Short-term Cell Viability Assay. Cells were seeded in 96-well plates at 1000 or 2000 cells/well and allowed to adhere at 23° C. for 60 min and then incubated overnight at 37° C. Cells were treated with indicated concentrations of compounds in triplicate for 4-6 days prior to fixation with 3.7% paraformaldehyde and nuclear staining with 1 μg/mL Hoechst 33342 dye. Cells were imaged on a Cytation 3 imaging reader (BioTek) and quantified using CellProfiler software. For in vitro short-term growth delay experiments, IC50 values were determined from the nonlinear regression equation, [inhibitor] vs normalized response with variable slope.
# [1] = tested on: LN229 MGMT−/MMR− flank tumors; test: Murine flank tumor model, LN229 MGMT-/MMR-; format: in vivo; conditions: for tumor growth, MGMT−/MMR− flank tumors: P.O.; for median OS: LN229 MGMT−/MMR− flank tumor-bearing mice, 5 mg/kg
# Excerpt: FIGS. 9A-91: KL-50 is safe and efficacious on both MGMT−/MMR+ and MGMT−/MMR-flank tumors over a wide range of treatment regimens and conditions. […] (FIG. 9C) Mean body weight of mice during LN229 flank tumor experiments. (FIG. 9D) Kaplan-Meier analysis of LN229 MGMT−/MMR− xenograft flank tumor-bearing mice to determine survival rate based on death, removal from study if mouse body weight loss exceeded 20% of initial body weight, or if tumor volume exceeded 2000 mm^3. […] (FIGS. 9H-91) Xenograft LN229 MGMT−/MMR+ and LN229 MGMT−/MSH6—flank tumors with a larger average starting tumor size of −400 mm^3 and −350 mm^3 respectively, treated with 3 weekly cycles of P.O administration of 10% cyclodextrin (n=4) or KL-50 (n=4, 3 cycles of 25 mg/kg on Monday, Wednesday, and Friday). The study period was limited by control groups which had to be euthanized for exceeding the ethical maximum allowed tumor size, thus ending the study. In all panels, points, mean; error bars, SEM; *, P<0.05; **, P<0.01; ***, P<0.001; ****, P<0.0001; ns, not significant.
# Mouse Protocols for Flank Studies. A mouse tumor model was established by subcutaneously implanting human LN229 (MGMT−/MMR+) or LN229 (MGMT−/MMR−) cells. Cells were cultured as a monolayer in DMEM+10% FBS (Thermo Fisher) at 37° C. in a humidified atmosphere with 5% CO2 and passaged between one and three days prior to implantation and media was replaced every 2-3 days as needed to maintain cell viability. Cells were not allowed to exceed 80% confluency. On the day of implantation, cells were trypsinized, washed with complete media and pelleted by centrifugation at 1200 rpm for 5 minutes. The supernatant was decanted, and cells were washed three times with sterile PBS and pelleted by centrifugation. During the final centrifugation, viability was determined using trypan blue exclusion. Cells were resuspended in sterile PBS and diluted 1:1 in Matrigel (Coming, Cat #47743-716) for a final concentration of 5×10^6 cells/100 μL. 5 million cells were injected into the flank of female nude mice (Envigo, Hsd:Athymic Nude-Fox1nu, 3-4 weeks age, 15 g). […] Caliper measurements were obtained during the dosing period and at least two weeks following treatment. Mice were euthanized if body weight loss exceeded 20% or if tumor volume increased to greater than 2000 mm^3. Kaplan-Meier analysis was used to evaluate survival rate based on death or removal from study.
Structure (SMILES),IC50 (LN229 MGMT+ shMSH3 cells) [µM],IC50 (LN229 MGMT− shMSH3 cells) [µM],MGMT− RI (LN229 MGMT− shMSH3 cells),"tumor growth, MGMT−/MMR− flank tumors ([1]; 5 mg/kg MWF x 3 weeks)","body weight during flank tumor experiments ([1]; 5 mg/kg MWF x 3 weeks, compared to TMZ or control)",median OS ([1]; Kaplan-Meier),"increase in median OS for KL-50 vs TMZ ([1]; Kaplan-Meier, MGMT−/MMR− flank)"
NC(=O)c1ncn2c(=O)n(CCF)nnc12 [KL-50],328 ± 26,7.9 ± 0.3,0.6,potently suppressed tumor growth,no significant changes in body weight,greater than 15 weeks,greater than 5 week
"Cn1nnc2c(C(N)=O)ncn2c1=O [TMZ, 4-methyl-5-oxo-2,3,4,6,8-pentazabicyclo[4.3.0]nona-2,7,9-triene-9-carboxamide, reference compound]",649 ± 32,3.1 ± 0.6,0.6,no efficacy,–,10 weeks,–
